What is called inhibition is the relative decrease from the control value, in per cent. A high value points to a strong effect.

This passage reports inhibition results from article PMC6934184, “Selective DNA-PKcs inhibition extends the therapeutic index of localized radiotherapy and chemotherapy” (The Journal of Clinical Investigation, 2019).

The experiment addresses T1, NTRK3 (TRKC) (Homo sapiens, UniProt Q16288).
T1 construct: purchased Thermo Fisher Scientific (Life Technologies) SelectScreen
In words: SelectScreen Z'LYTE. In kind it is biochemical. The procedure, abridged: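 SelectScreen broad panel; activity (Z'LYTE, Adapta) plus binding formats. ATP: Km app for CSF1R Z'LYTE; 10 for CAMK1 Adapta. Readout = % per kinase.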

T1 sequence (Q16288 32-839): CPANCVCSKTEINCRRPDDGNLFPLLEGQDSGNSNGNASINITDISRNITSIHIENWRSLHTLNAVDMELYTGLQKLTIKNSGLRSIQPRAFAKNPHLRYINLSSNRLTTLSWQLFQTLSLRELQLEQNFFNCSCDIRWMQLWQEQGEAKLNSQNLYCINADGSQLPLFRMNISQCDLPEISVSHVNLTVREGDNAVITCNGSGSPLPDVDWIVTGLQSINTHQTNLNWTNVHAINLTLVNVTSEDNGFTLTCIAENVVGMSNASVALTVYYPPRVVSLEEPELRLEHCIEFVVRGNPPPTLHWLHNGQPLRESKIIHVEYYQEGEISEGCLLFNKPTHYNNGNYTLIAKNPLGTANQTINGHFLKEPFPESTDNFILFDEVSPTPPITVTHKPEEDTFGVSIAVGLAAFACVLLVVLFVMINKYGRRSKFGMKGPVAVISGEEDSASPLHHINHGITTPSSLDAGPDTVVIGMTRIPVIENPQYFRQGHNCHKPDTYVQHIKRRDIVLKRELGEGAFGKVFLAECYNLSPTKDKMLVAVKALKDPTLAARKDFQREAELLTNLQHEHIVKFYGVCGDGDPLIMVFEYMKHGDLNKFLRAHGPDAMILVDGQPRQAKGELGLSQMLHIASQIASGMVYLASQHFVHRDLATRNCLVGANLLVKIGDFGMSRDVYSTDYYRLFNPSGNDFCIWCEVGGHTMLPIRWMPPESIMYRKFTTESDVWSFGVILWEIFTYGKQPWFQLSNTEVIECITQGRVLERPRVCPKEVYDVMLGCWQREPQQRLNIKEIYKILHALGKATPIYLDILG

On to `CN(C(=O)CN1CCOCC1)c1ccc2sc3c(-c4cccc5c(=O)cc(N6CC7CCC(C6)O7)oc45)cccc3c2c1` [NU5455], for which 1 µM produced 0.4% inhibition.
